From PMC4503722, “Novel Phenotypic Outcomes Identified for a Public Collection of Approved Drugs from a Publicly Accessible Panel of Assays” (PLoS ONE, 2015)
Read-outs that look alike come from different tables or passages of the source.

Tests used:
Assay in all cases: cells
[1] = test system: endothelial tube formation in co-cultures of ECFCs and ADSCs treated with VEGF; assay type: cell-based, human; conditions: read-out: Anti-Angiogenesis
[2] = test system: nuclear β-catenin in C2C12 cells; assay type: cell-based
INS-1E cells = assay type: cell-based, rat
NCI-H716 cells = assay type: cell-based, Human
HeLa cells = assay type: cell-based; conditions: HeLa, read-out: CellCycle G2/M
DLD-1 = assay type: cell-based
SW480 = assay type: cell-based
HCT116 = assay type: cell-based
[3] = test system: HCT116 cells treated with a GSK3β inhibitor; assay type: cell-based
RKO = assay type: cell-based; conditions: RKO
SNU-C1 = assay type: cell-based
Colo320 = assay type: cell-based
HT-29 = assay type: cell-based
[4] = Mus musculus, C2C12, Table 2, C2C12, […], 20 / 20.1 coded, read-out: Wnt pot. EC50
[5] = Rattus norvegicus, INS-1E, read-out: Ins. sec. EC50
[6] = Homo sapiens, NCI-H716; read-out: GLP1 sec. EC50
[7] = Homo sapiens, S2 Table, 20 = no response at highest concentration
[8] = Homo sapiens, DLD-1, 72 h, Table 2, 72 h, Cell TiterGlo, non-adherent, 20 coded, read-out: DLD-1 viab. IC50
[9] = Homo sapiens, COLO 320, read-out: Basal_Viability ATP Colo 320
[10] = Homo sapiens, COLO 320, Table 2, 72 h, Cell TiterGlo, non-adherent, 20 coded, read-out: Colo320 viab. IC50
[11] = Homo sapiens, HT-29, Table 2, 72 h, Cell TiterGlo, non-adherent, 20 coded, read-out: HT-29 viab. IC50
[12] = Homo sapiens, read-out: Basal_Viability ATP RKO
[13] = Homo sapiens, Table 2, 72 h, Cell TiterGlo, non-adherent, 20 coded, read-out: RKO viab. IC50
[14] = Homo sapiens, SNU-C1, 72 h, Table 2, 72 h, Cell TiterGlo, non-adherent, 20 coded, read-out: SNU-C1 viab. IC50
[15] = Homo sapiens, SW480, read-out: Basal_Viability ATP SW480

SMILES: N=C(N)NN=C(/C=C/c1ccc([N+](=O)[O-])o1)/C=C/c1ccc([N+](=O)[O-])o1 [Nitrovin]
- IC50 ([1]; S2 Table, module primary assay, 20 = no response at highest concentration, 20.1 = inactive in single concentration testing): > 10 µM
- EC50 ([2]; read-out: Wnt Pathway): 0.372 µM
- EC50 (INS-1E cells; S2 Table, module primary assay, 20 / 20.1 codes per legend, read-out: Insulin Secretion): > 10 µM
- EC50 (NCI-H716 cells; S2 Table; module primary assay; 20 / 20.1 codes per legend; read-out: GLP 1 Secretion): > 10 µM
- EC50 (HeLa cells; S2 Table, 20 = no response at highest concentration): > 10 µM
- IC50 (DLD-1; basal, DLD-1, read-out: Basal_Viability ATP DLD-1): > 20 µM
- IC50 (SW480; basal, SW480, read-out: Basal_Viability ATP SW480): 0.0076 µM
- IC50 (HCT116; basal, HCT116, read-out: Basal_Viability ATP HCT116): 0.136 µM
- IC50 ([3]; HCT116 pretreated with GSK3b inhibitor, read-out: GSK3b inh pretreated_Viability ATP HCT116): 0.0237 µM
- IC50 (RKO; basal, read-out: Basal_Viability ATP RKO): 0.0128 µM
- IC50 (SNU-C1; basal, SNU-C1, read-out: Basal_Viability ATP SNU-C1): 1.35 µM

SMILES: CC(C)n1c(/C=C/C(O)CC(O)CC(=O)O)c(-c2ccc(F)cc2)c2ccccc21 (centres unmarked) [fluvastatin, reference compound]
- EC50 [2, 4]: > 10 µM
- EC50 (INS-1E cells; [5]): > 10 µM
- EC50 (NCI-H716 cells; [6]): > 10 µM
- EC50 (HeLa cells; [7]): > 10 µM
- IC50 (DLD-1; [8]): > 20 µM
- IC50 (Colo320; [9]): 13 µM
- IC50 (Colo320; [10]): 13 µM
- IC50 (HT-29; [11]): > 20 µM
- IC50 (RKO; [12]): 19.2 µM
- IC50 (RKO; [13]): 19.2 µM
- IC50 (SNU-C1; [14]): > 20 µM

SMILES: CCC(C)(C)C(=O)O[C@H]1C[C@@H](C)C=C2C=C[C@H](C)[C@H](CC[C@@H]3C[C@@H](O)CC(=O)O3)[C@H]21 [simvastatin, reference compound]
- EC50 [2, 4]: > 10 µM
- EC50 (INS-1E cells; [5]): > 10 µM
- EC50 (NCI-H716 cells; Homo sapiens, NCI-H716; read-out: GLP 1 Secretion): 3.29 µM
- EC50 (NCI-H716 cells; [6]): 3.3 µM
- EC50 (HeLa cells; [7]): > 10 µM
- IC50 (DLD-1; [8]): > 20 µM
- IC50 (SW480; Homo sapiens, SW480, 72 h, Table 2, 72 h, Cell TiterGlo, non-adherent, 20 coded, read-out: SW480 viab. IC50): 5.9 µM
- IC50 (SW480; [15]): 5.93 µM
- IC50 (HCT116; Homo sapiens, HCT-116, 72 h, read-out: HCT-116 viab. IC50, Table 2, basal, 72 h, Cell TiterGlo, non-adherent, 20 coded): > 20 µM
- IC50 ([3]; Homo sapiens, HCT-116, read-out: HCT-116 (GSK3β) viab. IC50, Table 2, GSK3β inhibitor LY2090314 20 nM, 72 h, Cell TiterGlo, 20 coded): 4.7 µM
- IC50 ([3]; Homo sapiens, HCT-116, HCT116 pretreated with GSK3b inhibitor, read-out: GSK3b inh pretreated_Viability ATP HCT116): 4.73 µM
- IC50 (Colo320; [10]): 4.9 µM
- IC50 (Colo320; Homo sapiens, basal, Colo 320, read-out: Basal_Viability ATP Colo 320): 4.94 µM
- IC50 (HT-29; [11]): > 20 µM
- IC50 (RKO; [13]): > 20 µM
- IC50 (SNU-C1; [14]): > 20 µM

SMILES: COc1cc(NC(C)CCCN)c2ncccc2c1 (centres unmarked) [Primaquine]
- IC50 ([1]; Homo sapiens): > 10 µM
- EC50 ([2]; Mus musculus, C2C12, read-out: Wnt Pathway): > 10 µM
- EC50 (INS-1E cells; Rattus norvegicus, INS-1E, read-out: Insulin Secretion): > 10 µM
- EC50 (NCI-H716 cells; Homo sapiens, NCI-H716, read-out: GLP 1 Secretion): > 10 µM
- EC50 (HeLa cells; Homo sapiens): > 10 µM
- IC50 (DLD-1; Homo sapiens, DLD-1, read-out: Basal_Viability ATP DLD-1): > 20 µM
- IC50 (SW480; [15]): > 20 µM
- IC50 (HCT116; Homo sapiens, HCT-116, read-out: Basal_Viability ATP HCT116): 1.88 µM
- IC50 ([3]; Homo sapiens, HCT-116, read-out: GSK3b inh pretreated_Viability ATP HCT116): > 20 µM
- IC50 (Colo320; [9]): > 20 µM
- IC50 (RKO; [12]): > 20 µM
- IC50 (SNU-C1; Homo sapiens, SNU-C1, read-out: Basal_Viability ATP SNU-C1): > 20 µM

SMILES: Cc1nc2ccccc2n1Cc1ccc(Cl)cc1 [1-P-chlorobenzyl-2-methylbenzimidazole]
- IC50 ([1]; IC50 / EC50, endothelial tube area, ADSC/ECFC co-culture): 7.38 µM
- EC50 ([2]; IC50 / EC50, C2C12 beta-catenin translocation, read-out: Wnt Pathway): > 10 µM
- EC50 (INS-1E cells; IC50 / EC50, INS-1E, read-out: Insulin Secretion): > 10 µM
- EC50 (NCI-H716 cells; IC50 / EC50; NCI-H716; read-out: GLP 1 Secretion): > 10 µM
- EC50 (HeLa cells; IC50 / EC50): > 10 µM
- IC50 (DLD-1; basal, read-out: Basal_Viability ATP DLD-1): > 20 µM
- IC50 (SW480; basal, read-out: Basal_Viability ATP SW480): 5.33 µM
- IC50 (HCT116; basal, read-out: Basal_Viability ATP HCT116): 1.22 µM
- IC50 ([3]; GSK3b inhibitor pretreated, read-out: GSK3b inh pretreated_Viability ATP HCT116): 12 µM
- IC50 (Colo320; basal, read-out: Basal_Viability ATP Colo 320): 15.2 µM
- IC50 (HT-29; basal, read-out: Basal_Viability ATP HT-29): > 20 µM
- IC50 (SNU-C1; basal, read-out: Basal_Viability ATP SNU-C1): > 20 µM
